Where no end group is shown, it is not given here.
Legend:
[1] = test system: E. acervulina sporozoites; assay: Eimeria acervulina sporozoite viability by trypan blue exclusion; format: cell-based; conditions: for effect on E. acervulina sporozoites viability: peptide 1 μM to 10 μM, 1 h, 3 h, 6 h at 41° C.
Experimental: FIG. 1 depicts the cytotoxic activity of chicken NK-lysin peptides for Eimeria acervulina sporozoites. E. acervulina sporozoites (2×10^6/ml) were incubated with control medium (HBSS) and 4 kinds of NK-lysin peptides (50 ug/ml, 100 ug/ml) for 3 h at 41° C. Sporozoite viability was assessed by trypan blue exclusion. Experiments were done in triplicate and considered significant at P<0.01.
For investigating the kinetics of NK-lysin peptides, E. acervulina sporozoites (1.5×10^6/ml) were incubated with NK-lysin-transfected COS7 cell supernatant (1:1 dilution) and various concentrations of melittin, cNK-2 or cNK-4 for 1 h, 3 h and 6 h at 41° C.; sporozoite viability was assessed by trypan blue exclusion. Experiments were performed in triplicate.
E. acervulina sporozoites were obtained by excystation of sporulated oocysts (Dulski and Turner. 1988. Avian Dis. 32:235-239). After breaking the oocyst membrane with 0.5 mm glass beads by Mini-beadbeater (BioSpec Products Inc., Bartlesville, Okla.), sporocysts were purified by isopycnic centrifugation on a Percoll gradient, washed in cold PBS, then treated with excystation solution (0.25% trypsin, 0.014 M taurocholic acid) for 30 min at 41° C. to release sporozoites. Excystation fluid was filtered and the sporozoites were washed 3 times with cold HBSS at 3,000 rpm for 10 min at 4° C. and resuspended to 1.0×10^6/ml in HBSS or 10% RPMI-1640 medium (Sigma) (Hong et al. 2008, supra). The sporozoites were incubated for 1 h, 3 h or 6 h at 41° C. with NK-lysin-transfected COS7 cell supernatants, melittin or synthetic chicken NK-lysin peptides, stained with trypan blue, and viable sporozoites were counted microscopically.
To compare the effect of four kinds of chicken NK-lysin peptides on Eimeria acervulina sporozoites, Eimeria sporozoites were incubated in 50 μg/ml and 100 ug/ml of each peptide for 3 h at 41° C., respectively. The HBSS was used as a control. […] In contrast, other peptides or control didn't kill Eimeria sporozoites (FIG. 1).
We next investigated the cytolytic activity of cNK-2 lytic peptide at increasing concentrations from 1 μM to 10 μM (FIG. 2). Melittin was used as a positive control to gain peptide-induced lysis in the absence of a phospholipid preference (Dempsey, C. E. 1990. Biochim. Biophys. Acta 1031:143-161).

[2] = test system: E. acervulina oocysts; assay: In ovo plus intraperitoneal administration, protection against live oral E. acervulina challenge; format: in vivo, chickens
Experimental: FIGS. 6A and 6B depict the effect of cNK-2 treatment on body weight gains of birds infected with E. acervulina. At 1 day post-hatch, the chickens were infected with 500 sporulated oocysts of E. acervulina. Body weights were assessed at 5 days (FIG. 6A) and 10 days (FIG. 6B) post-infection. […] Each bar represents the mean±SEM values.
FIG. 7 depicts the effect of cNK-2 treatment on fecal oocyst shedding after oral challenge infection with live E. acervulina. At 1 day post-hatch, chickens were infected with 500 sporulated oocysts of E. acervulina and fecal oocysts were measured starting from day 5 to day 10 post-infection. Each bar represents the mean±SEM values.
For protection studies, broiler eggs at the 18-day-old embryo stage were allocated into 4 groups of 12 eggs each. An in ovo injector was used to inoculate eggs. The two control groups (Groups 1 and 2) received no NK lysin peptide and were mock inoculated with Hanks Balanced Salt Solution (HBSS) only. Two groups were inoculated with an in ova injection of cNK-2 peptide (ARS005-1; RD-27) at doses of 1 μg/embryo (Group 3) or 5 μg/embryo (Group 4). Three days later, birds were hatched and moved to brooder petersime units. Birds of Groups 3 and 4 were given a second injection with cNK-2 peptide at doses of 1 μg/bird and 5 μg/bird, respectively, using an intraperitoneal route as shown in Table 2. Birds that had been injected in ova with HBSS alone were not given an additional intraperitoneal injection (Table 2).
At one day post hatch, the birds from Groups 2, 3 and 4 were challenged orally with 500 sporulated, live Eimeria acervulina oocysts. Body weights were measured at 1 day post hatch, i.e., on the day of challenge (coccidia infection), at 5 days (FIG. 6A) and at 10 days (FIG. 6B) post-infection.
The effect of cNK-2 peptide on fecal oocyst shedding was also determined. […] Oocysts were collected between 5 and 10 days post infection and the number were counted using an established method (FIG. 7).

[3] = test system: E. maxima; assay: Membrane permeabilization in E. maxima (data not shown); format: cell-based, Eimeria maxima
[4] = test system: E. coli strain BMH71-18; assay: Bactericidal activity, broth microdilution assay (OD600); format: cell-based; conditions: peptides 0-40 μg/ml, 18 h
Experimental: Ampicillin (0-20 μg/ml), chicken NK-lysin peptides (0-40 μg/ml), or LB broth alone were added to cultures of the bacteria and incubated for 18 h at […]. Bacterial growth was determined by measuring OD600. X axis: Ampicillin concentrations.
To evaluate the bactericidal activity of NK-lysin peptides, the minimum inhibitory concentration (MIC) values of the purified recombinant protein against E. coil strain BMH71-18 were determined using a standardized broth microdilution assay. Ampicillin MIC values against the bacteria were determined in parallel as positive controls. The assays were performed in accordance with Clinical and Laboratory Standards Institute (CLSI; Formerly National Committee for Clinical Laboratory Standards [NCCLS]) guidelines (NCCLS. 1999. In: Methods for Determining Bacterial Activity of Antimicrobial Agents, NCCLC, Wayne, Pa.; NCCLS. 2002. In: Performance Standards for Antimicrobial Disk and Dilution Susceptibility Tests for Bacteria isolated from Animals; Approved Standard, 2nd ed. NCCLS, Wayne, Pa.). […] The wells were incubated for 18 h at 37° C. with ambient air circulation and without shaking, and the optical density (OD) of each well was measured on a Synergy HT™ multi-modal plate reader (Bio-Tec Instruments, Winooski, Vt.) at 600 nm. Background values, derived from non-inoculated wells containing broth alone, were subtracted from all readings.

[5] = test system: E. tenella; assay: Membrane permeabilization in E. tenella (data not shown); format: cell-based, Eimeria tenella
[6] = test system: C. parvum sporozoites; assay: Cryptosporidum parvum sporozoite viability by two-component fluorescent dye exclusion assay; format: cell-based; conditions: 0.017, 0.17, 17 and 170 μg/ml; 2 hrs incubation; P<0.01 at 170 μg/ml, P<0.05 at the others
Experimental: FIG. 4 depicts the effect of NK lysine on Cryptosporidum parvum sporozoites. Freshly prepared C. parvum sporozoites were incubated with different doses of cNK-2 for […] and Cryptosporidia sporozoite viability was measured by a two-component fluorescent dye exclusion assay (LIVE/DEAD Reduced Biohazard Viability/Cytotoxicity Kits, Molecular Probes L-7013). The result is presented as the means plus standard deviations. Statistical analysis was performed by the paired t-test with the Statcel2 software. The level of significance was set at a P value of <0.05.
C. parvum sporozoites were prepared as described with modifications (Riggs and Perryman. 1987. Infect. Immun. 55:2081-2087). The C. parvum sporozoites were incubated with various concentrations of cNK-2 peptides or BSA and viability was assessed after 2 hrs of incubation. Viability of the sporozoites was measured by a two-component fluorescent dye exclusion assay (LIVE/DEAD Reduced Biohazard Viability/Cytotoxicity Kits, Molecular Probes L-7013). Results are presented as the means plus standard deviations. […] Statistical analysis was performed with the Statcel2 software.

[7] = test system: N. caninum tachyzoites; assay: Neospora caninum tachyzoite viability by trypan blue exclusion; format: cell-based; conditions: 41° C.; for tachyzoites killed: 1 h incubation; for tachyzoites killing: 3 h incubation
Experimental: FIG. 3 depicts the dose- and time-dependant effects of chicken cNK-2 peptide on Neospora caninum tachyzoites. For investigating kinetics of NK-lysin peptides, N. caninum tachyzoites (1.0×10^7/ml) were incubated with medium (control) and two different concentrations (5 uM and 10 uM) of cNK-2 for 1 h and 3 h at 41° C.; tachyzoite viability was assessed by trypan blue exclusion. Experiments were performed in triplicate. RPMI medium alone served as the negative control. Data were expressed as means±SEM. Differences were considered statistically significant at P<0.05 by the Duncan's multiple range test.
N. caninum tachyzoites were prepared as described with modifications (Tuo et al. 2005. Infect. Immun. 73:5093-5100). N. caninum (NC-1 isolate) tachyzoites were cultured on bovine monocytes (Lindsay and Dubey. 1989. J. Parasitol. 75:163-165) in RPMI 1640 medium supplemented with 2% fetal calf serum and 50 μg/ml gentamicin at 37° C. in a 95% air and 5% CO2 atmosphere. N. caninum tachyzoite-infected host cells were collected, passed through 20- and 27-gauge needles, and pelleted by centrifugation at 1,000×g for 20 min at 4° C. Tachyzoites were then purified by centrifugation over a 40% Percoll gradient at 2,000×g for 30 min at 4° C. The tachyzoite pellet was then resuspended in PBS (pH 7.4) and washed three times. Finally tachyzoites were resuspended to 5.0×10^6/ml in 10% RPMI-1640 medium (Sigma). The tachyzoites were incubated for 1 h or 3 h at 41° C. with synthetic chicken NK-lysin peptides (5 μM and 10 μM), stained with trypan blue, and viable tachyzoites were counted microscopically.

Row | Compound | cytolytic effect on E. acervulina sporozoites ([1]; melittin positive control at 2.5 μM and 5 μM) | body weights of infected birds compared with HBSS control birds ([2]; 1 μg and 5 μg in ovo then intraperitoneal, 5 and 10 days post-infection, 500 oocysts, P<0.05) | fecal oocyst shedding ([2]; dose of at least 5 μg, oocysts collected 5 to 10 days post infection, P<0.05) | protective effect against live oral challenge infection ([2]; in ovo injections followed by intraperitoneal injections, 500 E. acervulina oocysts) | membrane permeabilization [3] | antimicrobial activity against bacterial growth [4] | membrane permeabilization [5] | killing of E. acervulina sporozoites (viability, trypan blue) ([1]; 50 μg/ml or 100 μg/ml peptide, 3 h at 41° C., HBSS control, P<0.01) | effect on E. acervulina sporozoites viability [1] | viability of C. parvum sporozoites [6] | tachyzoites killed ([7]; 5 uM) | tachyzoites killing ([7]; 5 uM) [%] | tachyzoites killed ([7]; 10 uM) [%] | tachyzoites killing ([7]; 10 uM) [%]
1 | CC[C@H](C)[C@H](NC(=O)CN)C(=O)NCC(=O)N[C@@H](C)C(=O)N[C@H](C(=O)N[C@@H](CC(C)C)C(=O)N[C@@H](CCCCN)C(=O)N[C@H](C(=O)N[C@@H](CC(C)C)C(=O)N[C@H](C(=O)N[C@H](C(=O)NCC(=O)N[C@@H](CC(C)C)C(=O)N1CCC[C@H]1C(=O)N[C@@H](C)C(=O)N[C@@H](CC(C)C)C(=O)N[C@H](C(=O)N[C@@H](CO)C(=O)N[C@@H](Cc1c[nH]c2ccccc12)C(=O)N[C@H](C(=O)N[C@@H](CCCCN)C(=O)N[C@@H](CCCNC(=N)N)C(=O)N[C@@H](CCCCN)C(=O)N[C@@H](CCCNC(=N)N)C(=O)N[C@@H](CCC(N)=O)C(=O)N[C@@H](CCC(N)=O)C(N)=O)[C@@H](C)CC)[C@@H](C)CC)[C@@H](C)O)[C@@H](C)O)C(C)C)C(C)C [Melittin, reference compound] | total disruption of the cellular membrane |  |  |  |  |  |  |  |  |  |  |  |  | 
2 | RRQRSICKQLLKKLRQQLSDALQNNDD-NH2 [cNK-2] |  | significantly higher body weights | significant reduction of fecal oocyst shedding | significant protective effect | caused membrane permeabilization | Neither chicken NK-lysin nor the NK-lysin peptides, cNK-2 and cNK-4, demonstrated antimicrobial activity | caused membrane permeabilization | significantly killed | time- and dose-dependent effect | significant decreases in the viability | about 46% | 71 | ~60 | 86
3 | cNK-4: synthetic chicken NK-lysin peptide (88-117), AINNALNKVCSTGRRQRSICKQLLKKLRQQ, SEQ ID NO. 4 (listed as Gallus gallus) |  |  |  |  |  | Neither chicken NK-lysin nor the NK-lysin peptides, cNK-2 and cNK-4, demonstrated antimicrobial activity |  |  | no effect |  |  |  |  | 

Source: patent US8691943B2, “Antimicrobial activity of chicken NK-2 peptide against apicomplexan protozoa” (priority 2011, dated 2014)
